Laboratory results from patent US11241501B2, “Anticancer prodrug for overcoming drug resistance” (Korea University Research and Business Foundation, priority 2018, dated 2022).

Assays:
[1] = tested on: MCF7 and MCF7/Dox cells; assay: Intracellular accumulation, fluorescence assay; format: cell-based, human; settings: up to 12 hr after treatment
Protocol: (§1) Fluorescence intensities were measured with SpectraMAX 13. Data represent means±SD. **p<0.01. […] Data represent means±SD. **[…]. […] Data represent the mean±SD (n=3 experimental replicates). *p<0.05, **p<0.01. […] MCF7/Dox cells were treated with C1 or C3 as indicated, and the cytosolic (C) and mitochondrial (M) fractions were subjected to immunoblot assay. COX-IV and tubulin were used as markers for the mitochondria and cytosol fractions, respectively.
Mito-tracker (green) was utilized to show the mitochondria;
(§2) To analyze the cellular fluorescence levels upon compound treatment, cells were seeded in plates 1 day before treatment with the compounds. Cells were then treated with each compound for the indicated dose or time course. After the experiment, cells were washed with ice-cold PBS, trypsinized, and centrifuged. The cell pellet was re-suspended in 300 μL of PBS and then analyzed using a multiplate reader (SpectraMAX I3x). The results were normalized according to the number of cells.

[2] = tested on: MCF7/Dox cells; assay: Assessment of mitochondrial membrane potential (CLSM); format: cell-based, human; settings: 5 μM, 48 h
Protocol: To assess the mitochondrial membrane potential, MCF-7/Dox cells (5×10^3 cells) were seeded in glass-bottomed dishes and treated with 5 μM compound C1, C3, DCA, and/or doxorubicin for 48 h. After incubation, the cells were stained with 2 ml of a PBS solution containing 20 μM Mitoview™ 633 (Biotium, USA) and 100 nM Hoechst® 33342 (ThermoFisher, USA) for 30 min at 37° C. with 5% CO2. Fluorescence was detected using a Zeiss LSM 700 confocal laser scanning microscope (Carl Zeiss).

[3] = tested on: HepG2 cells; assay: Immunoblot assay of cleaved caspase-3 and PARP-1; format: cell-based, human
Protocol: (§3) Immunoblot analyses were performed using antibodies specific for phosphorylated serine 293 PDH-EI (ab92696), p21^Waf1 (sc-397), cleaved PARP (5625), cleaved caspase-3 (9664), COX-IV (4850), and Cytochrome c (4280). They were purchased from Abcam (Cambridge, UK), Santa Cruz Biotechnology (Texas, USA) or Cell Signaling Technology (Massachusetts, USA). Anti-tubulin antibodies were obtained from Sigma-Aldrich (St. Louis, USA). Briefly, cells were washed twice in ice-cold PBS and lysed in a radioimmunoprecipitation assay buffer containing 50 mM Tris/HCl (pH 7.5), 150 mM NaCl, 0.1% sodium dodecyl sulfate (SDS), 1% Triton X-100, 1% sodium deoxycholate, and protease inhibitor mixture. After sonification, the lysate was centrifuged, and the supernatant was recovered and loaded onto a 12% SDS-polyacrylamide gel for electrophoresis.

[4] = Hepatotoxicity assay, serum ALT and AST; format: in vivo; settings: mice bearing MCF7/Dox tumors
Protocol: Tumors are shown (right). […] C1 injection led to a 58% reduction in tumor growth, which was statistically greater than the reductions seen in the case of C2 (16%), C3 (9%), C4 (6%) and DMSO (0%) tested under otherwise identical conditions.
Blood samples of each mice were centrifuged at 3,000 rpm for 10 min at 4° C. to produce serum. Then, the activities of ALT and AST in serum were analyzed using the AST and ALT Activity Assay Kits (MAK055, MAK052, Sigma) according to the manufacturer's instructions.

[5] = tested on: p21^Waf1 and phosphorylated PDH levels; assay: Immunoblot assay of p21Waf1 and phosphorylated PDH; format: cell-based, human
Protocol: HepG2 cells treated with each compound (5 μM, 24 hr) were co-stained with the mitochondrial marker MitoTracker (green). Boxed regions show co-localization of the test compounds and probe within the mitochondria. […] Experiments were carried out in triplicate and the data shown represent means±SD. **p<0.01. […] HepG2 cells were incubated with BNPP (100 μM) for 2 hr prior to C1 treatment. **p<0.01. […] Cleaved caspase-3 and PARP-1 levels were examined to assess apoptosis induction. C, cleaved.
as §3

[6] = Stability on incubation in PBS; format: physicochemical; settings: PBS pH 7.4, 37° C., 24 hr
Protocol: To gain further insight into the preliminary stability and activation of conjugates containing DCA, Dox, and a TPP cation targeting entity, both the target conjugate C1 and the control system C3 (an analog of C1 lacking the chloromethyl groups present in DCA; cf. FIG. 1) were prepared. These two conjugates were obtained in excellent yield, as shown in Scheme S1. […] This release was accompanied by a strong emission band at 560 nm corresponding to free Dox (FIG. 2A and FIG. 2B). Further support for the release of free Dox under these conditions came from time-dependent fluorescence experiments, HPLC, and liquid chromatography-mass spectrometry (FIG. 2B and FIG. 2C, and FIG. 7). […] To test the reaction of C1 with various other bioanalytes, the fluorescence response in the presence of various amino acids, enzymes, and biomolecules was recorded.

[7] = tested on: cancer cells (A549 and HepG2), normal cells (NHDF and IMR90); assay: Cellular uptake of compounds in normal and cancer cells; format: cell-based, human; settings: 5 μM, 6 h, A549, HepG2 vs NHDF
Protocol: Cells were treated with 5 μM of each compound for 6 h. Fluorescence intensities were determined using SpectraMAX 13;
as §2

[8] = tested on: MCF7/Dox cells; assay: Intracellular ATP, lactate levels and glucose uptake; format: cell-based, human
Protocol: as §1
Intracellular ATP levels were measured using an ATP Bioluminescence Assay Kit HSII (Roche Applied Science). Briefly, after the indicated treatment times for the test compound in question, cells were lysed with boiling lysis reagent and the supernatant was collected. […] of luciferin/Luciferase reagents. Luminescence was measured using Luminoskan Ascent (Thermo Scientific). Results were normalized to cell number. Intracellular L(+)-lactate level was measured using a lactate assay kit (BioVision). Cells were suspended with lactate assay buffer and incubated in the presence of the reaction mixture for 30 min. The lactate was quantified by measuring the absorbance at 570 nm using a Bio-Rad 680 microplate reader (Bio-Rad). For the glucose uptake assay, 2×10^5 cells were incubated in the presence of 20 mmol/L of 2-NBDG (2-[N-(7-nitrobenz-2-oxa-1,3-diazol-4-yl)amino]-2-deoxy-d-glucose; N13195; Invitrogen) for 2 h. The cells were re-suspended in cold growth medium and stained with propidium iodide. Samples were maintained on ice and analyzed via flow cytometry (Becton Dickinson).

COc1cccc2c1C(=O)c1c(O)c3c(c(O)c1C2=O)C[C@@](O)(C(=O)CO)C[C@@H]3OC1C[C@H](NC(=O)OC(Cc2cn(CCCCCC[P+](c3ccccc3)(c3ccccc3)c3ccccc3)nn2)c2ccc(NC(=O)C(Cl)Cl)cc2)[C@H](O)[C@H](C)O1.[Br-] (stereo partly shown) [C1]
intracellular accumulation in MCF7/Dox versus MCF7 [1]: comparable level in both MCF7 and MCF7/Dox cells
decrease in mitochondrial membrane potential Δψm [2]: ca. 96%
apoptosis-inducing activity (cleaved caspase-3 and PARP-1) [3]: greater apoptosis-inducing activity than C2
toxicity from ALT and AST levels in blood serum [4]: no significant toxicity
effect on p21^Waf1 and phosphorylated PDH levels [5]: up- and downregulation of p21^Waf1 and phosphorylated PDH levels
decomposition upon incubation in PBS [6]: no decomposition was observed
tumor cell selectivity of cellular uptake [7]: taken up specifically by cancer cells
glucose uptake [8]: decreased glucose uptake
intracellular ATP levels [8]: lowered intracellular ATP levels
intracellular lactate levels [8]: dose-dependent reduction of intracellular lactate levels
